Source: patent publication US20230028441A1, “NOVEL HETEROARYL-TRIAZOLE COMPOUNDS AS PESTICIDES” (Bayer Aktiengesellschaft, priority 2019, published 2023)

Legend:
Format in all cases: in vivo
[1] = tested on: larvae of the banded cucumber beetle (Diabrotica balteata); assay: Diabrotica balteata spray test; conditions: 168 h, 100 g/ha (=32 μg/well), after 7 days, wheat seeds, read-out: efficacy (seedlings grown up)
How it was run: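 Germinated wheat seedlings (5 per well, agar plates) sprayed with compound in acetone/DMF diluted in water with 1000 ppm emulsifier, then infested with 10-20 larvae per unit. Efficacy scored after 7 days as % seedling growth relative to untreated, uninfested control (100% = normal growth, 0% = none).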

[2] = tested on: larvae of the southern green stink bug (Nezara viridula); assay: Nezara viridula spray test; conditions: in Hordeum vulgare, 96 h
How it was run: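 Barley plants infested with Nezara viridula larvae were sprayed with compound in acetone/dimethylformamide, diluted in water containing 1000 ppm alkylarylpolyglycol ether emulsifier. Mortality (%) was scored after 4 days; 100% means all stink bugs killed.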

[3] = tested on: brown planthopper (Nilaparvata lugens); assay: Nilaparvata lugens spray test; conditions: in Oryza sativa, 96 h
Protocol: Solvent: 78.0 parts by weight of acetone • • 1.5 parts by weight of dimethylformamide
Emulsifier: alkylarylpolyglycol ether
To produce a suitable preparation of active compound, 1 part by weight of active compound is mixed with the stated amount of solvents and is diluted with water, containing an emulsifier concentration of 1000 ppm, to the desired concentration. Further test concentrations are prepared by dilution with emulsifier containing water.
Rice plants (Oryza sativa) are sprayed with a preparation of the active ingredient of the desired concentration and the plants are infested with the brown planthopper (Nilaparvata lugens).
After 4 days mortality in % is determined. 100% means all planthoppers have been killed and 0% means none of the planthoppers have been killed.

[4] = tested on: fall armyworm larvae (Spodoptera frugiperda); assay: Spodoptera frugiperda spray test (maize leaf sections); conditions: 168 h
How it was run: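 Maize leaf sections were sprayed with compound formulated in acetone/DMF and diluted in water containing 1000 ppm emulsifier. Once dry, sections were infested with fall armyworm larvae. Mortality (%) was scored after 7 days.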

[5] = tested on: cattle tick larvae (Rhipicephalus microplus), strain Parkhurst, resistant against synthetic pyrethroids; assay: Rhipicephalus (Boophilus) microplus in-vitro contact test, larval cattle tick; conditions: 5 μg/cm^2 (=500 g/ha), after 48 hours, read-out: efficacy (larvae dead or moribund)
How it was run: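 Acetone solutions of compound were coated on glass tube walls (900 ppm giving 5 μg/cm^2) and dried. 20–50 pyrethroid-resistant Parkhurst larvae were held per tube at 27° C and 85% relative humidity; after 48 h negative geotaxis scored efficacy as percent larvae dead or moribund.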

[6] = tested on: adult engorged female ticks (Rhipicephalus microplus); assay: Rhipicephalus (Boophilus) microplus injection test; conditions: 168 h, egg deposition after 7 days, read-out: efficacy (infertile eggs); for pest or weed control at 0.004 mg: 4 μg/animal
How it was run: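 Compound was dissolved in DMSO at 10 mg per 0.5 mL and diluted with DMSO to the test concentration. Five engorged adult females received a 1 μL abdominal injection and were kept in a climate chamber. After 7 days, fertile egg deposition was scored, with unclear eggs held until hatching at about 42 days; 100% efficacy means all eggs were infertile.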

[7] = tested on: adult cat fleas (Ctenocephalides felis); assay: Ctenocephalides felis in-vitro contact test, adult cat flea; conditions: 5 μg/cm^2 (=500 g/ha), after 48 hours, read-out: efficacy (fleas dead or moribund)
Protocol: (§1) 9 mg compound is solved in 1 mL acetone and diluted with acetone to the desired concentration. 250 μL of the test solution is filled in 25 mL glass test tubes and homogeneously distributed on the inner walls by rotation and tilting on a shaking device (2 h at 30 rpm). With a compound concentration of 900 ppm, an inner surface of 44.7 cm^2 and a homogeneous distribution, a dose of 5 μg/cm^2 is achieved.
After the solvent has evaporated, each test tube is filled with 5-10 adult cat fleas (Ctenocephalides felis), closed with a perforated lid and incubated in a lying position at room temperature and relative humidity. After 48 hours efficacy is determined. The fleas are patted on the ground of the tubes and are incubated on a heating plate at 45-50° C. for at most 5 minutes. Immotile or uncoordinated moving fleas, which are not able to escape the heat by climbing upwards, are marked as dead or moribund.
An efficacy of 100% means all fleas are dead or moribund; 0% means no fleas are dead or moribund.

[8] = tested on: adult unfed cat fleas (Ctenocephalides felis); assay: Ctenocephalides felis oral test; conditions: 48 h, 100 ppm in cattle blood, after 2 days
How it was run: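 About 20 adult unfed Ctenocephalides felis fed through parafilm on cattle blood dosed with compound (DMSO stock diluted in blood), blood chamber at 37°C, fleas at room temperature. Mortality (%) scored after 2 days; 100% means all fleas killed.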

[9] = tested on: adult brown dog ticks (Rhipicephalus sanguineus); assay: Rhipicephalus sanguineus in-vitro contact test with adult brown dog ticks; conditions: after 48 hours, read-out: efficacy (ticks dead or moribund)
Protocol: as §1
After the solvent has evaporated, each test tube is filled with 5-10 adult brown dog ticks (Rhipicephalus sanguineus), closed with a perforated lid and incubated in a lying position at room temperature and relative humidity. After 48 hours efficacy is determined. The ticks are patted on the ground of the tubes and are incubated on a heating plate at 45-50° C. for at most 5 minutes. Immotile or uncoordinated moving ticks, which are not able to escape the heat by climbing upwards, are marked as dead or moribund.
An efficacy of 100% means all ticks are dead or moribund; 0% means no ticks are dead or moribund.

Row | SMILES | pest or weed control at 32 µg/disc, 100 g/ha [1] | mortality at 500 g/ha [2] | mortality at 500 g/ha [3] | mortality at 100 g/ha [4] | further results
1 | CNc1nc([C@H](C)NC(=O)c2cc(OC(F)(F)F)cc(S(C)(=O)=O)c2)n(-c2ncccn2)n1 [I-185] | 100% | 100% | 100% | – | –
2 | C[C@H](NC(=O)c1cc(C(F)(F)F)cc(C(F)(F)F)c1)c1nc(N2CCOCC2)nn1-c1ccc(C#N)cn1 [I-175] | 100% | – | 100% | 100% | –
3 | C[C@H](NC(=O)c1cc(C(F)(F)F)cc(C(F)(F)F)c1)c1nc(N)nn1-c1ccc(C#N)cn1 [I-173] | 100% | 90% | 100% | 100% | –
4 | CON(C)c1nc([C@H](C)NC(=O)c2cc(Br)cc(OC(F)(F)F)c2)n(-c2ncccn2)n1 [I-151] | 100% | 100% | 100% | 100% | –
5 | C[C@H](NC(=O)c1cc(OC(F)(F)F)cc(S(C)(=O)=O)c1)c1nc(N)nn1-c1ncccn1 [I-188] | – | 100% | 100% | – | –
6 | CC(NC(=O)c1cc(Cl)cc(C(F)(F)F)c1)c1nc(C(N)=O)nn1-c1ccc(C#N)cn1 (stereo not drawn) [I-075] | 100% | – | – | – | pest or weed control at 5 µg/cm2 [5]: 100%; pest or weed control at 0.004 mg [6]: 100%; pest or weed control at 5 µg/cm2 [7]: 90%; mortality at 100 ppm [8]: 100%
7 | CC(NC(=O)c1cc(Br)cc(C2(C(F)(F)F)CC2)c1)c1nc(N)nn1-c1ncccn1 (stereo not drawn) [I-112] | – | – | – | – | pest or weed control at 5 µg/cm2 [5]: 100%; pest or weed control at 5 µg/cm2 [7]: 90%
8 | CNc1nc([C@H](C)NC(=O)c2cc(OC(F)(F)F)cc(S(=O)(=O)c3ccc(Cl)cc3)c2)n(-c2ncccn2)n1 [I-182] | 100% | – | 100% | 100% | –
9 | CON(C)c1nc([C@H](C)NC(=O)c2cc(C(F)(F)F)cc(C(F)(F)F)c2)n(-c2ncccn2)n1 [I-149, N-[(1S)-1-[5-[methoxy(methyl)amino]-2-pyrimidin-2-yl-1,2,4-triazol-3-yl]ethyl]-3,5-bis(trifluoromethyl)benzamide] | 100% | 100% | 100% | 100% | –
10 | CNc1nc([C@H](C)NC(=O)c2cc(OC(F)(F)F)cc(S(=O)(=O)C(C)C)c2)n(-c2ncccn2)n1 [I-181] | – | – | 100% | – | –
11 | CCS(=O)(=O)c1cc(C(=O)N[C@@H](C)c2nc(N)nn2-c2ncccn2)cc(C(F)(F)F)c1 [I-189] | – | 100% | 100% | – | –
12 | CC(NC(=O)c1cc(Cl)cc(C(F)(F)F)c1)c1nc(C#N)nn1-c1ccc(Cl)cn1 (racemic) [I-071, 3-chloro-N-[1-[2-(5-chloro-2-pyridyl)-5-cyano-1,2,4-triazol-3-yl]ethyl]-5-(trifluoromethyl)benzamide] | – | – | – | – | pest or weed control at 5 µg/cm2 [5]: 90%; pest or weed control at 0.004 mg [6]: 100%; pest or weed control at 0.02 mg ([6]; 20 μg/animal): 100%; pest or weed control at 5 µg/cm2 [7]: 80%
13 | CC(NC(=O)c1cc(C(F)(F)F)cc(C(F)(F)F)c1)c1nc(N)nn1-c1ccc(C(=O)N2CCOCC2)cn1 (stereo not drawn) [I-115] | – | 100% | – | 100% | pest or weed control at 5 µg/cm2 [5]: 100%; pest or weed control at 5 µg/cm2 [7]: 100%; pest or weed control at 1 µg/cm2, 100 g/ha ([9]; 1 μg/cm^2 (=100 g/ha)): 100%; pest or weed control at 5 µg/cm2, 500 g/ha ([9]; 5 μg/cm^2 (=500 g/ha)): 100%
14 | CC(NC(=O)c1cc(Cl)cc(C(C)(C)C#N)c1)c1nc(N(C)C)nn1-c1ncc(Cl)cn1 (stereo not drawn) [I-170] | 100% | 100% | 100% | 100% | –
15 | CNc1nc([C@H](C)NC(=O)c2cc(C(F)(F)F)cc(C(F)(F)F)c2)n(-c2ccc(C#N)cn2)n1 [I-168] | 100% | 100% | 100% | 100% | –
16 | CNc1nc([C@H](C)NC(=O)c2cc(Cl)cc(S(=O)(=O)C(F)(F)F)c2)n(-c2ncccn2)n1 [I-186] | 100% | 100% | 100% | 100% | –
17 | CCS(=O)(=O)c1cc(OC(F)(F)F)cc(C(=O)N[C@@H](C)c2nc(NC)nn2-c2ncccn2)c1 [I-180] | 100% | 100% | 100% | 100% | –
18 | C[C@H](NC(=O)c1cc(OC(F)(F)F)cc(C2CC2)c1)c1nc(N(C)C)nn1-c1ncc(Cl)cn1 [I-177] | 100% | 100% | 100% | 100% | –
19 | CC(NC(=O)c1cc(Cl)cc(S(C)(=O)=O)c1)c1nc(N2CCOCC2)nn1-c1ccc(C#N)cn1 (stereo not drawn) [I-160] | – | – | 100% | – | –
20 | C[C@H](NC(=O)c1cc(Cl)cc(S(C)(=O)=O)c1)c1nc(N)nn1-c1ncccn1 [I-169] | – | 100% | 100% | – | –
21 | C[C@H](NC(=O)c1cc(C(F)(F)F)cc(C(F)(F)F)c1)c1nc(N(C)C)nn1-c1ncc(Cl)cn1 [I-176] | 100% | 100% | 100% | 100% | –
22 | CNc1nc([C@H](C)NC(=O)c2cc(C3CC3)cc(S(=O)(=O)C(F)(F)F)c2)n(-c2ncccn2)n1 [I-183] | 100% | 100% | 100% | 100% | –
23 | C[C@H](NC(=O)c1cc(OC(F)(F)F)cc(C2CC2)c1)c1nc(N2CCOCC2)nn1-c1ccc(C#N)cn1 [I-174] | 100% | – | 100% | – | –
24 | C[C@H](NC(=O)c1cc(C(F)(F)F)cc(S(C)(=O)=O)c1)c1nc(N)nn1-c1ncccn1 [I-211] | – | 100% | 100% | – | –
